Among the test systems are SF-539; MDA-MB-231; SK-OV-3; HCT-15; DU-145; SN12C; Malme-3M; MDA-MB-435; SF-268; A549; SK-MEL-2; HCT-116; A498; HT-29; MOLT-4; OVCAR-3; K562; OVCAR-8; SW-620; RXF 393.
Assay in all cases: NCI-60 cell line screen, 48 h

The structures appear in SMILES notation.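 Briefly, cells in 96-well plates were exposed to five compound concentrations for 48 h, and endpoints were estimated by linear interpolation. The concentration for 50% growth inhibition is given as GI50.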 The source made the active and inactive calls. No stated cut-off is given here; in the data, active = GI50 up to about 1.1 µM and inactive = higher. Where only a bound is given, the exact number is not on record here.

In the case of `COC(=O)C1Cc2cc3c(cc2C1=O)CCC3` (stereo unspecified), the GI50 with SF-539 is > 100 µM (inactive); with MDA-MB-231, > 100 µM (inactive); in the assay on SK-OV-3, > 100 µM (inactive); in the assay on HCT-15, above 100 µM; in the assay on DU-145, > 100 µM (inactive); with SN12C, 90.6 µM (inactive). In addition, the GI50 in the assay with Malme-3M, with MDA-MB-435, in the assay with SF-268, in the assay with A549, in the assay on SK-MEL-2 and with HCT-116 was > 100 µM (inactive) throughout. Also, the GI50 was > 100 µM (inactive) with A498; > 100 µM (inactive) in the assay on HT-29; 68.7 µM (inactive) in the assay with MOLT-4; > 100 µM (inactive) in the assay with OVCAR-3; 43 µM (inactive) in the assay with K562; > 100 µM (inactive) in the assay on OVCAR-8. Besides, the GI50 with SW-620 is > 100 µM (inactive).

`Cc1ccc(S(=O)(=O)N2CCSCCN(S(=O)(=O)c3ccc(C)cc3)CCN(S(=O)(=O)c3ccc(C)cc3)CC2)cc1`: the GI50 in the assay on SF-539 is 17.6 µM (inactive); with MDA-MB-231, 17.4 µM (inactive); with SK-OV-3, 30.1 µM (inactive); in the assay with DU-145, > 100 µM (inactive); in the assay on SN12C, > 100 µM (inactive); in the assay on MDA-MB-435, > 100 µM (inactive). The GI50 was 27.9 µM (inactive) in the assay with RXF 393; 16.7 µM (inactive) in the assay on SF-268; > 100 µM (inactive) in the assay on A549; 25.9 µM (inactive) in the assay with SK-MEL-2; 78.5 µM (inactive) in the assay on HCT-116; 69.7 µM (inactive) in the assay on A498. Besides, the GI50 is > 100 µM (inactive) in the assay on HT-29; > 100 µM (inactive) in the assay on MOLT-4; > 100 µM (inactive) in the assay on OVCAR-3; > 100 µM (inactive) with K562; 37.8 µM (inactive) in the assay with OVCAR-8; > 100 µM (inactive) in the assay on SW-620.

With `CCN1C(NCCO)=NS(=O)(=O)c2ccccc21`, the GI50 in the assay on SF-539 is > 100 µM (inactive); in the assay with MDA-MB-231 it was > 100 µM (inactive); in the assay on SK-OV-3 it was > 100 µM (inactive); with HCT-15 it was above 100 µM; in the assay on DU-145 it was > 100 µM (inactive); with SN12C, > 100 µM (inactive). In addition, the GI50 in the assay with MDA-MB-435, in the assay on RXF 393, with SF-268, with A549, in the assay on SK-MEL-2 and in the assay on HCT-116 was > 100 µM (inactive) in each case. Moreover, the GI50 with A498, in the assay on HT-29, in the assay on MOLT-4, in the assay on OVCAR-3, in the assay on K562 and in the assay with OVCAR-8 was > 100 µM (inactive) each time. Moreover, the GI50 in the assay with SW-620 was > 100 µM (inactive).

On to `CC(C)(C)OC(=O)Cn1ncn(NC(=O)Cc2ccccc2)c1=O`, for which the GI50 is > 10 µM (inactive) in the assay on SF-539; > 10 µM (inactive) with MDA-MB-231; > 10 µM (inactive) in the assay on SK-OV-3; above 10 µM in the assay with HCT-15; > 10 µM (inactive) in the assay on DU-145; > 10 µM (inactive) in the assay on SN12C. Moreover, the GI50 in the assay on Malme-3M, with MDA-MB-435, in the assay on SF-268, in the assay on A549, in the assay with HCT-116 and in the assay on A498 was > 10 µM (inactive) each time. The GI50 in the assay on HT-29, with MOLT-4, in the assay on OVCAR-3, in the assay on K562, in the assay with OVCAR-8 and in the assay on SW-620 was > 10 µM (inactive) in each case.

Regarding `CC(=O)Nc1cc(Nc2cc(O)nc(O)n2)ccc1C`, the GI50 is > 100 µM (inactive) with SF-539; > 100 µM (inactive) in the assay on MDA-MB-231; above 100 µM in the assay with HCT-15; > 100 µM (inactive) in the assay on DU-145; > 100 µM (inactive) with SN12C; > 100 µM (inactive) with Malme-3M. Also, the GI50 in the assay with MDA-MB-435, in the assay on RXF 393, in the assay with SF-268, in the assay with A549, with HCT-116 and in the assay on A498 was > 100 µM (inactive) throughout. Besides, the GI50 in the assay on OVCAR-3, in the assay on K562, in the assay with OVCAR-8 and in the assay on SW-620 was > 100 µM (inactive) throughout.

`NCCCCC(NC(=O)C(N)Cc1ccc(O)cn1)C(=O)O` (stereo unspecified): the GI50 is > 100 µM (inactive) with SF-539; > 100 µM (inactive) with MDA-MB-231; above 100 µM with HCT-15; > 100 µM (inactive) in the assay on DU-145; > 100 µM (inactive) with SN12C; > 100 µM (inactive) with Malme-3M. Moreover, the GI50 in the assay on MDA-MB-435, with RXF 393, in the assay on SF-268, in the assay on A549, in the assay with HCT-116 and in the assay on A498 was > 100 µM (inactive) throughout. In addition, the GI50 in the assay on HT-29, in the assay on MOLT-4, in the assay on OVCAR-3, in the assay on K562, in the assay with OVCAR-8 and in the assay with SW-620 was > 100 µM (inactive) each time.

Turning to `OC12COc3ccccc3C1Oc1ccccc1C2` (stereo unspecified), the GI50 in the assay on SF-539 was > 100 µM (inactive); with MDA-MB-231 it was > 100 µM (inactive); with SK-OV-3, > 100 µM (inactive); in the assay on HCT-15, above 100 µM; in the assay with DU-145 it was > 100 µM (inactive); in the assay on SN12C, > 100 µM (inactive). The GI50 in the assay on Malme-3M, in the assay with MDA-MB-435, with SF-268, in the assay on A549, in the assay with SK-MEL-2 and with HCT-116 was > 100 µM (inactive) in each case. Moreover, the GI50 with A498, in the assay with HT-29, in the assay on MOLT-4, in the assay with OVCAR-3, in the assay on K562 and in the assay with OVCAR-8 was > 100 µM (inactive) in each case. Moreover, in the assay with SW-620, the GI50 is > 100 µM (inactive).

In the case of `C/C(=N\NC(=S)Nc1ccc(C)cc1)c1nc2cccnc2[nH]1`, the GI50 in the assay on SF-539 is 1.14 µM (inactive); in the assay with MDA-MB-231, 1.17 µM (inactive); in the assay on SK-OV-3, 4.3 µM (inactive); with HCT-15, 2.86 µM; with DU-145 it was 2.59 µM (inactive); with SN12C, 2.32 µM (inactive). Besides, the GI50 in the assay on Malme-3M is 4.86 µM (inactive); with MDA-MB-435, 2.94 µM (inactive); in the assay on SF-268 it was 0.587 µM (active); with A549, 2.33 µM (inactive); in the assay on SK-MEL-2, 10.8 µM (inactive); in the assay with HCT-116, 1.6 µM (inactive). In addition, the GI50 in the assay with A498 was 7.71 µM (inactive); with HT-29, 0.681 µM (active); in the assay with MOLT-4 it was 1.27 µM (inactive); with OVCAR-3, 0.483 µM (active); with K562, 2.9 µM (inactive); in the assay on OVCAR-8, 3.05 µM (inactive). Moreover, the GI50 with SW-620 is 3.57 µM (inactive).

The values are drawn from ChEMBL document CHEMBL1201862, “PubChem BioAssay data set” (2004).
